Data on one molecule can be found in patent US20210338755A1, “AQUEOUS EXTRACT FROM CELLS OF FITZROYA CUPRESSOIDES (ALERCE) WITH ANTI- AGING AND SKIN REGENERATION PROPERTIES” (RUBISCO BIOTECHNOLOGY, priority 2018, published 2021).

The subject of this assay is HaCaT cells. In words: Scratch wound experiment with cell division inhibitor mitomycin C. The assay is classed as cell-based. The settings on record: 48 hours; 20 μmol/L mitomycin C before treatment with 0.125% v/v extract.

Source text: Evaluation of the effect of mitomycin C in wound healing repair. […] 20 μmol/L of Mitomycin C was applied before each treatment.
The application of mitomycin inhibits division of the HaCaT cells that, together with cell migration, are the two mechanisms involved in wound healing repair.

On to `CO[C@@]12[C@H](COC(N)=O)C3=C(C(=O)C(C)=C(N)C3=O)N1C[C@@H]1N[C@@H]12` [mitomycin C], for which the “effect on wound closure induced by Alerce cell culture extract” value is recorded as “significantly inhibited the wound closure”.
